According to patent US20040106673A1, “Compositions and methods for inhibiting proliferation in human prostate cancer cells” (priority 2002, published 2004):
Values joined by “and” are separate entries in the source; they are usually repeats but may differ in a detail not shown here. Equal entries are not always repeated.

Legend:
LNCaP cells [1] = test: Number of viable LNCaP cells (trypan blue exclusion); assay type: cell-based, human; settings: for effect on LNCaP cell growth (FIG. 2): TPA alone 0.32 nM, ATRA alone 0.5 to 10 μM, or 0.32 nM TPA with increasing ATRA
Protocol: LNCaP cells were seeded in culture dishes and incubated for 24 hours to allow the cells to attach to the culture dishes. The cells were then treated with ethanol (2 μl/ml) or TPA in ethanol (0.2 to 10 ng/ml) for 96 hours.
The number of viable and dead cells was determined by trypan blue exclusion. […] The concentration of TPA that caused a 50% inhibition of LNCaP cell growth was 3 nM (IC50). The IC50 for TPA varied between 1 and 3 nM in different experiments.
(§1) LNCaP cells were obtained from the American Type Culture Collection (Rockville, Md., USA). TPA was obtained from Alexis Co. (San Diego, Calif.). ATRA was obtained from Sigma Chemical Co. (St. Louis, Mo.). LNCaP cells were maintained in RPMI-1640 culture medium containing 10% fetal bovine serum that was supplemented with penicillin (100 units/ml), streptomycin (100 μg/ml) and L-glutamine (300 μg/ml) as described (Zheng, X. et al. 2000. Oncol. Res. 12:419=427). Cultured cells were grown at 37° C. in a humidified atmosphere of 5% CO2 and were passed twice a week. In all experiments, LNCaP cells were initially seeded at a density of 1×10^5 cells/ml in a final volume of 2 or 5 ml in 35 or 60 mm tissue culture dishes, respectively.
To quantify the number of viable cells after each treatment, cells were counted using a hemacytometer under a light microscope. Cell viability was determined by the trypan blue exclusion assay, which was done by mixing 80 μl of cell suspension and 20 μl of 0.4% trypan blue solution for 2 minutes.

LNCaP cells [2] = test: Flow cytometry (propidium iodide): cell cycle distribution and apoptosis in cultured LNCaP cells; assay type: cell-based, human; settings: for apoptotic cells (percent of pre-G0/G1 cells): single drug, TPA 0.16 or 0.32 nM
Protocol: as §1, with “ATRA was obtained from Sigma Chemical Co. (St. Louis, Mo.).” left out
To perform the analysis, 1×10^6 cells were washed with phosphate-buffered saline (PBS) and resuspended in 500 μl of stain solution (20 mg/ml polyethylene glycol 8000, 50 μg/ml propidium iodide, 0.1% Triton-X-100, and 0.4 M sodium chloride). The mixture was incubated at 4° C. overnight in the dark before being analyzed on a Coulter Epics-Profile II flow cytometer. Propidium iodide is a fluorescent dye that intercalates into the DNA double helix. Whether cells are in the G1 phase where they have two copies of their genome or in the G2/M phase where they have 4 copies of their genome, or in the S phase where their DNA is between the two states, can be determined by the amount of propidium iodide that intercalates into the DNA. Pre G0/G1 cells were considered apoptotic cells. The proportion of cells in each phase of the cell cycle was calculated using the cytologic software provided.

LNCaP tumors [3] = test: Second in vivo study: TPA, ATRA or both i.p. in NCr mice with LNCaP tumors, 21 or 46 days; settings: for % of Mice with Tumor Growth / % of Mice with Tumor Regression: i.p.; for percent of initial tumor size: TPA 0.16 nmol/g
Protocol: Tumor cell growth was measured and expressed as percent of initial size (FIG. 3). […] In this table, mice in Group A (13 mice/group) were treated for 21 days, while mice in Group B (6 mice/group) were a subset of the original group and were treated for an additional 25 days.
The effect of the 21 day treatments on body weight was examined in order to determine if there was the same level of toxicity seen in the first animal study.
The results from the Group B animals were analyzed separately.
Male Ncr immunodeficient mice (6 to 7 weeks old) were obtained from Taco Farms (Germantown, N.Y.). The animals were housed in sterile filter-capped microisolator cages and provided with sterilized food and water. Prostate cancer cells (2×10^6 cells/0.1 ml/mouse) suspended in 50% matrigel (Collaborative Research, Bedford, Mass.) in RPMI 1640 medium were injected subcutaneously into the right flank of the mice. After 4 to 6 weeks, mice with well-established tumors (0.65 to 1 cm by 0.65 to 1 cm) were used for the various experiments. In all experiments, animals received the same volume of injections (5 μl/g body weight). Tumor size and body weight were measured daily. At the end of a study, mice were sacrificed by decapitation, tumors were excised, weighed, and placed in phosphate-buffered formalin for 48 hr at room temperature and then placed in ethanol for 48 hr before preparing paraffin sections.

LNCaP tumors [4] = test: Mitotic cells and caspase 3 (active form) immunostaining in LNCaP tumors from treated mice; assay type: in vivo, male NCr mice; settings: mice treated for 46 days
Protocol: (§2) Tumor size and body weight were measured daily.
Tumor sections used were stained by the horseradish peroxidase-conjugated-avidin method. Endogenous peroxidase was blocked by incubating the tissue sections in 3% hydrogen peroxide in methanol for 30 minutes at room temperature. Sections were then treated with 0.01 M sodium citrate buffer (pH 6.0) in a microwave oven at high temperature for 10 minutes. The sections were incubated with a protein block (normal goat serum) for 10 minutes, followed by avidin D for 15 minutes and biotin blocking solution for 15 minutes at room temperature. The sections were incubated with caspase 3 primary antibody (1:2000 dilution) for 30 minutes at room temperature followed by incubation with a biotinylated anti-rabbit secondary antibody for 30 minutes and incubation with conjugated-avidin solution for 30 minutes. Color development was achieved by incubation with 0.02% 3,3′-diaminobenzidine tetrahydrochloride containing 0.02% hydrogen peroxide for 10 minutes at room temperature. The slides were then counterstained with hematoxylin, dehydrated and coverslips were added for permanent mounting. A positive reaction was shown as a light brown to dark brown precipitate in the cytoplasm and/or perinuclei of the cells.

LNCaP tumors [5] = test: First in vivo study: TPA i.p. in NCr mice with LNCaP tumors, 13 days; design: species or system male NCr mice
Protocol: With the feasibility of the use of TPA by i.p. injection now established, male NCr mice were injected subcutaneously with LNCaP cells in matragel. […] On day 3, the dose of TPA was increased (0.32 nmol/g; 5 μl vehicle/g body weight) and this dose level was administered i.p. for 11 days. The length and width of each tumor was measured at the start of the study and during treatment with TPA. Tumor size was expressed as cm^2 (length×width). There was a statistically significant inhibition of tumor cell growth in the TPA treated animals. The average tumor size in the vehicle-treated control group increased to about 200% of the initial tumor size while the average tumor size after 13 days of treatment with TPA was about 95% of the initial tumor size.
as §2

[6] = doses of TPA in the range of 0.25 to 1 mg; cited from earlier work
[7] = Blood levels of TPA after i.p. injection in NCr mice (HL-60 differentiation bioassay); assay type: in vivo, male NCr mice
Protocol: Immunodeficient male NCr mice were used as they are a well-established mouse model for examination of human tumor cell growth. […] TPA was administered in a vehicle that consisted of propylene glycol, polysorbate 80, benzyl alcohol, ethanol, and water (40:0.5:1:10:48.5). Peak blood levels of TPA were in the range of 3 ng/ml (4.8 nM) after a 200 ng/g injection and 1 ng/ml (1.7 nM) after a 100 ng/g injection.
The concentration of TPA in blood after an i.p. injection of TPA was measured by a bioassay that quantifies ethyl acetate-extractable differentiating activity in blood (Cui, X. X. et al. 2002. Oncol. Res. 13:169-174). Differentiating activity was measured in HL-60 cells. […] Although blood levels of bioactive material are expressed as ng of TPA/ml blood, the assay could include biologically active metabolites.

[8] = Treatment for 48 Hours, TPA 1 ng/ml, Taxol 5 ng/ml
[9] = Treatment for 96 Hours, TPA 1 ng/ml, Taxol 5 ng/ml
[10] = TPA 0.32 nM, ATRA 1 μM, 96 hours
[11] = entire 46 day treatment interval (Group B), ATRA 0.5 nmol/g

Row | Structure (SMILES) | # Visible Cells (1 × 10^5) (LNCaP cells [1]; [8]) | # Visible Cells (1 × 10^5) (LNCaP cells [1]; [9]) | % Apoptotic Cells (LNCaP cells [2]; [8]) | % Cells in G0/G1 (LNCaP cells [2]; [8]) | % Cells in G2/M (LNCaP cells [2]; [8]) | % Cells in S (LNCaP cells [2]; [8]) | % Apoptotic Cells (LNCaP cells [2]; [9]) | % Cells in G0/G1 (LNCaP cells [2]; [9]) | % Cells in G2/M (LNCaP cells [2]; [9]) | % Cells in S (LNCaP cells [2]; [9]) | # Visible Cells (1 × 10^5) (LNCaP cells [1]; [10]) | effect on LNCaP cell growth (FIG. 2) (LNCaP cells [1]) | % of Mice with Tumor Growth (LNCaP tumors [3]; Group A, 21 days) | % of Mice with Tumor Regression (LNCaP tumors [3]; Group A, 21 days) | % of Mice with Tumor Growth (LNCaP tumors [3]; Group B, 46 days) | % of Mice with Tumor Regression (LNCaP tumors [3]; Group B, 46 days) | percent of initial tumor size (LNCaP tumors [3]; [11]) | % Caspase 3 Positive Cells (LNCaP tumors [4]) | % Mitotic Cells (LNCaP tumors [4]) | % Apoptotic Cells (LNCaP cells [2]; [10]) | further results
1 | CC(=O)O[C@H]1C(=O)[C@@]2(C)[C@H]([C@H](OC(=O)c3ccccc3)[C@]3(O)C[C@H](OC(=O)[C@H](O)[C@@H](NC(=O)c4ccccc4)c4ccccc4)C(C)=C1C3(C)C)[C@]1(OC(C)=O)CO[C@@H]1C[C@@H]2O [Taxol, paclitaxol] | 4.6 1 × 10^5 | 2.5 1 × 10^5 | 12.9% | 73.0% | 6.4% | 12.8% | 28.4% | 49.7% | 8.7% | 12.4% |  |  |  |  |  |  |  |  |  |  | 
2 | CC1=C(/C=C/C(C)=C/C=C/C(C)=C/C(=O)O)C(C)(C)CCC1 [ATRA, all-trans-retinoic acid] |  |  |  |  |  |  |  |  |  |  | 11.1 1 × 10^5 | little effect on LNCaP cell growth | 69% | 31% | 83% | 17% | 159.2±27.0% | 0.35 ± 0.03% | 0.54 ± 0.04% | 3.5% | rate of tumor growth at later time intervals (FIG. 5) (LNCaP tumors [3]; Group B, 46 days, ATRA 0.5 nmol/g): about the same rate as tumors in the vehicle control group; % Cells in G0/G1 (LNCaP cells [2]; [10]): 73.3%; % Cells in G2/M (LNCaP cells [2]; [10]): 8.2%; % Cells in S (LNCaP cells [2]; [10]): 14.8%; apoptotic cells (percent of pre-G0/G1 cells) (LNCaP cells [2]; 96 hours, ATRA 1 μM): same low level of apoptotic cells
3 | CCCCCCCCCCCCCC(=O)O[C@@H]1[C@@H](C)[C@@]2(O)[C@@H](C=C(CO)C[C@]3(O)C(=O)C(C)=C[C@@H]23)[C@@H]2C(C)(C)[C@]12OC(C)=O [TPA, 12-O-tetradecanoylphorbol-13-acetate] | 3.7 1 × 10^5 | 3.2 1 × 10^5 | 10.1% | 77.8% | 5.5% | 13.0% | 11.2% | 66.7% | 9.5% | 12.3% | 6.9 1 × 10^5 | slight inhibitory effect on cell growth | 38% | 62% | 33% | 67% | 106.1±21.0% | 0.45 ± 0.03 % | 0.50 ± 0.05% | 5.4% | toxicity (LNCaP tumors [5]; 13 days, TPA 0.16 then 0.32 nmol/g i.p. once a day): excessive toxicity (decreased body weight and one death on day 14 of the study); average tumor size, % of the initial tumor size (LNCaP tumors [5]; after 13 days, TPA 0.16 nmol/g for 2 days then 0.32 nmol/g for 11 days, i.p.): about 95%; toxicity in humans [6]: only vein irritation and transient fever, and an occasional incidence of transient dyspnea; apoptotic cell morphology (LNCaP cells [1]; 3.2 nM TPA): morphologically distinct apoptotic cells; percent of initial tumor size (LNCaP tumors [3]; 21 days, once a day i.p., ATRA 0.5 nmol/g): 96.4±3.1%; effect on body weight (LNCaP tumors [3]; treated for 46 days): significant decreases in body weight; peak blood level of TPA ([7]; after a 100 ng/g i.p. injection): ~1 ng/ml and ~1.7 nM; peak blood level of TPA ([7]; after a 200 ng/g i.p. injection): about 3 ng/ml and ~4.8 nM; time of peak blood levels ([7]; i.p. 100 or 200 ng TPA per gram of body weight): 30 to 60 min; TPA in blood at 8, 12 or 24 hours ([7]; i.p. injection of 100 ng/g TPA): No TPA was detectable; TPA in blood at 8 and 24 hours ([7]; i.p. injection of 200 ng/g TPA): Measurable blood levels of TPA; half-life of TPA ([7]; i.p., NCr mice): 3 to 6 h; Ratio of Mitotic Cells/Caspase 3 Cells (LNCaP tumors [4]): 1.13 ± 0.11; % Cells in G0/G1 (LNCaP cells [2]; [10]): 69.7%; % Cells in G2/M (LNCaP cells [2]; [10]): 8.7%; % Cells in S (LNCaP cells [2]; [10]): 15.9%; apoptotic cells (percent of pre-G0/G1 cells) (LNCaP cells [2]; 96 hours, ATRA 1 μM): same low level of apoptotic cells
